Measured values as given in patent US8092785B2, “Process for milling poorly soluble drugs in presence of liquid propellants” (Glaxo Group Limited, priority 2004, dated 2012).

Columns and labels:
[1] = Physical form of milled, co-milled or spray dried product by XRPD; assay type: physicochemical
Description: Drug substance prepared according to the present invention maybe characterised by a series of physical analytical techniques well known to those skilled in the art for analysing physical form, for instance XPRD, polarised light microscopy (PLM), thermal analysis, FT-IR and laser diffraction particle sizing.
500 mg of drug or drug:polymer blend (PVP K30, PVP/VA 64 (BASF) and PVP/VA 37 (BASF)) (1:2 w/w) was ball milled in a mixer mill (MM2 Mixer mill, Glen Creston Ltd). The sample was milled at 17.5 1/sec in a 25 ml chamber for 120 minutes at 2% w/v with 2×12 mm diameter and 6×7 mm diameter stainless steel ball bearings.
500 mg of drug or drug:polymer blend (PVP K30) (1:2 w/w) was placed in a 25 ml milling chamber (2% w/v). Grinding media of 2×5 mm, 2×7 mm, 2×9 mm and 2×12 mm ball bearings were added. 10 g of 134a (Du Pont) was then added into the milling chamber via a valve. The sample was then milled for 2×20 minute periods at a frequency of 25 1/sec using a Retsch MM200 Mixer mill.
XPRD patterns of resultant products are shown as FIG. 1.1 to 1.4.
500 mg of drug and 1 g of polymer (1:2 w/w) was placed in a 25 ml measuring chamber. Grinding media of 2 mm Yttrium-Zirconium beads (equivalent volume 5 ml) were added. 12 ml of propellant 134a was then added into the milling chamber via a valve. The sample was then milled for 30 minutes at a frequency of 25 1/sec using a Retsch MM200 Mixer mill.
Drug (2 g) and polymer (3 g) were dissolved in approximately 200 ml of dimethyl formamide and spray dried at approximately 2 ml/min using a lab scale spray drier (Buchi B191, outlet temperature about 95° C.). The spray dried powders were then further dried at 65° C. under vacuum for 48 hrs. The dispersions were amorphous by XRPD.
Thus, the co-milling process has not compromised the physical form of compound A.

[2] = set-up: key: Those in class II have low solubility and high permeability; those in class IV have low solubility and low permeability; conditions: classified according to solubility and permeability (Amidon et al); cited from earlier work
[3] = Particle size of milled product (SEM analysis / particle sizing); assay type: physicochemical
Description: Drug substance prepared according to the present invention maybe characterised by a series of physical analytical techniques well known to those skilled in the art for analysing physical form, for instance XPRD, polarised light microscopy (PLM), thermal analysis, FT-IR and laser diffraction particle sizing. 500 mg of drug or drug:polymer blend (PVP K30, PVP/VA 64 (BASF) and PVP/VA 37 (BASF)) (1:2 w/w) was ball milled in a mixer mill (MM2 Mixer mill, Glen Creston Ltd). The sample was milled at 17.5 1/sec in a 25 ml chamber for 120 minutes at 2% w/v with 2×12 mm diameter and 6×7 mm diameter stainless steel ball bearings. 500 mg of drug or drug:polymer blend (PVP K30) (1:2 w/w) was placed in a 25 ml milling chamber (2% w/v). Grinding media of 2×5 mm, 2×7 mm, 2×9 mm and 2×12 mm ball bearings were added. 10 g of 134a (Du Pont) was then added into the milling chamber via a valve. The sample was then milled for 2×20 minute periods at a frequency of 25 1/sec using a Retsch MM200 Mixer mill.

[4] = Dissolution testing of ball milled and 134a ball milled products (USP II apparatus, sink conditions); assay type: physicochemical; conditions: neat drug ball milled in 134a, 37.5° C., 50 RPM
Description: The dissolution profiles of study compounds prepared by ball milling and 134a ball milling were measured according to the following method:
Dissolution testing was carried out under sink conditions using a VanKel USP II dissolution apparatus (fluid pump Model 17-2300, water bath VK750D, water bath stirrer VK7010). Dissolution testing was carried out at 37.5° C.+/−0.5° C. (Digitron Type K thermocouple thermometer). Vessels were stirred at 50 RPM. Samples underwent online UV analysis (Hewlett Packard 8453) at time points 0, 2, 5, 10, 15, 20, 30, 45 and 60 minutes. Samples were filtered with a 10 μm filters (Anachem). The pH 6.8 0.1M phosphate buffer^1 was degassed prior to commencement of the dissolution run (Copley Dissofill, model DSF2). Standard curves were prepared by dissolving drug in acetonitrile:water (1:1) for carbamazepine and glibenclamide or acetonitrile:pH 6.8 buffer (1:1) for dipyridamole and indomethacin. Drug concentration, UV cell path length, dissolution media and wavelength of detection were all compound specific. All analysis was carried out in triplicate. ^1 pH 6.8 buffer: 20 l prepared by addition of 10 l of Na2HPO4.2H2O 17.8 g/l to 10 l of NaH2PO4.H2O 13.8 g/l. pH was confirmed using a pH meter.

[5] = ball milling with propellant 134a, 2×20 minute
[6] = conventional ball milling, 120 minutes, no propellant
[7] = ball milling with 134a, compared to conventionally milled product

COc1ccc2c(c1)c(CC(=O)O)c(C)n2C(=O)c1ccc(Cl)cc1 [indomethacin]
physical form of product [1, 5]: γ form | physical form of product [1, 6]: predominantly amorphous product | Biopharmaceutics Classification system class [2]: II | particle size [3, 7]: significant decrease in particle size

COc1ccc(Cl)cc1C(=O)NCCc1ccc(S(=O)(=O)NC(=O)NC2CCCCC2)cc1 [glibenclamide]
physical form of product [1, 5]: remained in the same crystalline form as the starting material | physical form of product [1, 6]: amorphous product | Biopharmaceutics Classification system class [2]: II | particle size [3, 7]: significant decrease in particle size

NC(=O)N1c2ccccc2C=Cc2ccccc21 [carbamazepine, Carbamazepine]
physical form of product [1, 5]: complete conversion to a crystalline form, form III | physical form of product [1, 6]: conversion to a crystalline form, form III | Biopharmaceutics Classification system class [2]: II | particle size [3, 7]: significant decrease in particle size | particle size ([3]; conventional ball milling): no significant decrease in particle size

OCCN(CCO)c1nc(N2CCCCC2)c2nc(N(CCO)CCO)nc(N3CCCCC3)c2n1 [dipyridamole]
dissolution rate [4]: improved in dissolution rate | physical form of product [1, 5]: dipyridamole form II | physical form of product [1, 6]: predominantly amorphous product | Biopharmaceutics Classification system class [2]: II
